Reference: patent US4191738A, “Immunoassay for N-desmethyldiazepam” (Hoffmann-La Roche Inc., priority 1978, dated 1980)
Values joined by “and” are separate entries in the source; they are usually repeats but may differ in a detail not shown here. Identical values can stand only once.

Experiments:
[1] = tested on: antiserum to N-desmethyldiazepam; assay: RIA cross-reactivity with the antiserum to N-desmethyldiazepam; format: binding, New Zealand white rabbit; settings: for % Cross-reaction: determined at 50% inhibition of antibody-bound ^3 H-N-desmethyldiazepam; for interference (cross-reactivity in words): RIA antiserum to N-desmethyldiazepam
Experimental: (§1) Two New Zealand white rabbits were immunized by intradermal injection of the immunogen as an emulsion in Freund's complete adjuvant (1 mg/ml) using the protocol of Dixon et al. supra. The animals were then boosted at monthly intervals by intravenous and subcutaneous injection of 100 μg of the immunogen as a solution in isotonic saline via both routes. Serum was harvested at 10 to 14 days following each booster and stored at -20° C.
The assay was carried out in 12×75 mm glass tubes using 0.01 M Tris buffer (pH 7.5) containing 0.9% NaCl and 0.1% sodium azide. A calibration curve was generated by addition of ^3 H-N-desmethyldiazepam (15,000 cpm) in 0.5 ml of buffer to tubes containing 0.5 to 20 ng of unlabelled N-desmethyldiazepam in 50 μl of control plasma or blood followed by 0.4 ml of suitably diluted antiserum. Appropriate controls were included to determine nonspecific (i.e. absence of antiserum) and specific binding of the tracer. Following incubation at room temperature for 0.5 to 1 hr, an equal volume (1 ml) of saturated ammonium sulfate (adjusted to pH 7.5 with 5 N NaOH) was added to precipitate antibody-bound radioligand. The mixture was vortexed and after standing for 10 min at 4° C. in a refrigerated centrifuge, the tubes were centrifuged at 2500×g for 20 min. The supernate was removed by aspiration and the precipitate, containing the antibody-bound radioligand, dissolved in 0.4 ml of water. (When whole blood samples were assayed, the precipitate was washed twice with 1 ml of 50% saturated ammonium sulfate prior to its dissolution in water. This procedure removed virtually all of the heme proteins which might otherwise interfere with the subsequent liquid scintillation counting procedure.) After the addition of 3 ml of Aquasol (New England Nuclear, Boston, Mass. 02118) each tube was vortexed immediately to give a clear solution, capped with a Caplug (size 5X, Protective Closures Co., Inc., Buffalo, N.Y. 14207) and the tube counted directly as described by Dixon and Cohen, Clin. Chem, 22, 1746 (1976) in a modified liquid scintillation counter (Packard Tri-Carb, Model 3255, Packard Instrument Co., Ill. 60515). The counting efficiency for tritium under these conditions was 32%.
All samples were assayed in duplicate and the data calculated as outlined by Robard, Clin. Chem. 20, 1255 (1970) using a digital computer for iterative weighted linear regression analysis of logit B/Bo versus log dose where B and Bo are the amounts of antibody-bound radioligand in the presence and absence of unlabelled drug, respectively. Both B and Bo were corrected for nonspecific binding.
The specificity of the RIA was established by determination of the extent of cross-reactivity of a number of potential competitors with the antiserum and by comparison of the RIA method with the EC-GC procedure of de Silva et al., Anal. Chem. 48, 10 (1976).
*Determined at 50% inhibition of antibodybound ^3

[2] = tested on: antibodies elicited by N-desmethyldiazepam-bovine gamma globulin conjugate; settings: 3'-carboxypropyl linked conjugate, U.S. Pat. No. 4,046,636 Example 8; cited from earlier work
[3] = tested on: antiserum to N-desmethyldiazepam; assay: RIA calibration, binding of ^3 H-N-desmethyldiazepam to antiserum, sensitivity and precision; design: species or system New Zealand white rabbit
Experimental: as §1
The assay was carried out in 12×75 mm glass tubes using 0.01 M Tris buffer (pH 7.5) containing 0.9% NaCl and 0.1% sodium azide. […] (When whole blood samples were assayed, the precipitate was washed twice with 1 ml of 50% saturated ammonium sulfate prior to its dissolution in water. This procedure removed virtually all of the heme proteins which might otherwise interfere with the subsequent liquid scintillation counting procedure.) After the addition of 3 ml of Aquasol (New England Nuclear, Boston, Mass. 02118) each tube was vortexed immediately to give a clear solution, capped with a Caplug (size 5X, Protective Closures Co., Inc., Buffalo, N.Y. 14207) and the tube counted directly as described by Dixon and Cohen, Clin. Chem, 22, 1746 (1976) in a modified liquid scintillation counter (Packard Tri-Carb, Model 3255, Packard Instrument Co., Ill. […]

[4] = cited from earlier work

| Compound | % Cross-reaction [1] | cross-reaction with prior-art antibodies [2] | other results |
| --- | --- | --- | --- |
| Nc1ccc2c(c1)C(c1ccccc1Cl)=NCC(=O)N2 [7-Aminoclonazepam] | 0.07% |  |  |
| CN(C)CCC=C1c2ccccc2CCc2ccccc21 [Amitriptyline] | < 0.01% |  | interference (cross-reactivity in words) [1]: negligible interference; % Cross-reaction ([1]; listed as amitriptyline): less than 1% |
| CNC1=Nc2ccc(Cl)cc2C(c2ccccc2)=[N+]([O-])C1 [Chlordiazepoxide] | 0.2% | cross-react strongly | % Cross-reaction ([1]; listed as chlordiazepoxide): less than 1% |
| O=C1CN=C(c2ccccc2Cl)c2cc([N+](=O)[O-])ccc2N1 [Clonazepam] | 0.3% |  | interference (cross-reactivity in words) [1]: negligible interference; % Cross-reaction ([1]; listed as clonazepam): less than 1% |
| O=C(O)C1N=C(c2ccccc2)c2cc(Cl)ccc2NC1=O (stereo not shown) [Clorazepate] | > 50% |  | % Cross-reaction ([1]; listed as clorazepate): greater than 50% |
| O=C1C[N+]([O-])=C(c2ccccc2)c2cc(Cl)ccc2N1 [Demoxepam] | 0.6% |  | % Cross-reaction ([1]; listed as demoxepam): less than 1% |
| CN1C(=O)CN=C(c2ccccc2)c2cc(Cl)ccc21 [Diazepam] | 0.6% and 0.5% | cross-react strongly | % Cross-reaction ([1]; listed as diazepam): less than 1% |
| O=C1CN=C(c2ccccc2)c2cc(Cl)ccc2N1 [N-desmethyldiazepam] | 100% | cross-react strongly | inhibition of binding of the radioligand to the antiserum ([3]; 0.5 ng standard, plasma): greater than 10% |
| CNCCC=C1c2ccccc2CCc2ccccc21 [Nortriptyline] | < 0.01% |  |  |
| O=C1Nc2ccc(Cl)cc2C(c2ccccc2)=NC1O (stereo not shown) [Oxazepam] | 5.5% | cross-react strongly | presence in plasma as metabolite of diazepam and clorazepate [4]: negligible quantities |
| ^3 H-N-desmethyldiazepam |  |  | added radioligand bound by antiserum ([3]; 0.5 μl of antiserum, after second booster immunization): approximately 50% |
